SMILES strings stand for the structures. Where a name gives a salt, the structure may show the parent alone.

The test has as its target T1, epithelial sodium channel (ENaC) (Homo sapiens, UniProt P37088+P51168+P51170).
T1 construct: host or cells: primary Human Bronchial Epithelial cells (HBECs), air-liquid interface culture
T1 sequence (P37088 1-669): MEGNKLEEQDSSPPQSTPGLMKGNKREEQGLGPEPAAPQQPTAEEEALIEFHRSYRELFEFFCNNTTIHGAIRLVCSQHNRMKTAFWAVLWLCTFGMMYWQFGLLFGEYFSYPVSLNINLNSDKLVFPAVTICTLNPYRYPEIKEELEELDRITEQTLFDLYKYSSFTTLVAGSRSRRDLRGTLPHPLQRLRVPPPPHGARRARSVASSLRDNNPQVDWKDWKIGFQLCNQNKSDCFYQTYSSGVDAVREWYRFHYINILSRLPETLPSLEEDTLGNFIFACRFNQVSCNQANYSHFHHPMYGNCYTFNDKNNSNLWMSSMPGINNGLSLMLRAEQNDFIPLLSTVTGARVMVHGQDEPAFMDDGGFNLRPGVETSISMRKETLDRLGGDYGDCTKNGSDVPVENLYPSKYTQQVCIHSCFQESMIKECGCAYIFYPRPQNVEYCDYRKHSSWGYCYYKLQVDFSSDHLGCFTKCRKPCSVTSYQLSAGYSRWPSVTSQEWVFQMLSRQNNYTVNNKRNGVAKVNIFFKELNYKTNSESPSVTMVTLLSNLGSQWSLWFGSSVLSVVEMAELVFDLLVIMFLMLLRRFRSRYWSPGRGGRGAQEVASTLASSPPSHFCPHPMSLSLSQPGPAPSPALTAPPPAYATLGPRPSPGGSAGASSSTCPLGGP
T1 sequence (P51168 1-640): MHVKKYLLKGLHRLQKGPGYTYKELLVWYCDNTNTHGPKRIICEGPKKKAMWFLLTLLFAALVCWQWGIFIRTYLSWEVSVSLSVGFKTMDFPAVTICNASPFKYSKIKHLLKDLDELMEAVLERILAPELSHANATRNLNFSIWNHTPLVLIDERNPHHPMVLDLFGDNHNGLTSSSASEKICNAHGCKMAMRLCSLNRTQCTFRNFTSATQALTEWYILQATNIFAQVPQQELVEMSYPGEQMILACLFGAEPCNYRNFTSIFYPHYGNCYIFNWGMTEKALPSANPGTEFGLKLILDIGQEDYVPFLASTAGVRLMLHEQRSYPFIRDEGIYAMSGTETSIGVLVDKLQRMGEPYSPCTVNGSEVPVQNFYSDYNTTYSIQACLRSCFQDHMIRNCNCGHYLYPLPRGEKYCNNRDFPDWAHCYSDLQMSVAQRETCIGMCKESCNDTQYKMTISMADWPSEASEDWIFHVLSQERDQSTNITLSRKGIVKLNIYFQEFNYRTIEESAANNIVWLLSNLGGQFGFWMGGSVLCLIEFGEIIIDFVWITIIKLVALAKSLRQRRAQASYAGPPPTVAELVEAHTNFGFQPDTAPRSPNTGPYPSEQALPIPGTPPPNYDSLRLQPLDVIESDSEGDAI
T1 sequence (P51170 1-649): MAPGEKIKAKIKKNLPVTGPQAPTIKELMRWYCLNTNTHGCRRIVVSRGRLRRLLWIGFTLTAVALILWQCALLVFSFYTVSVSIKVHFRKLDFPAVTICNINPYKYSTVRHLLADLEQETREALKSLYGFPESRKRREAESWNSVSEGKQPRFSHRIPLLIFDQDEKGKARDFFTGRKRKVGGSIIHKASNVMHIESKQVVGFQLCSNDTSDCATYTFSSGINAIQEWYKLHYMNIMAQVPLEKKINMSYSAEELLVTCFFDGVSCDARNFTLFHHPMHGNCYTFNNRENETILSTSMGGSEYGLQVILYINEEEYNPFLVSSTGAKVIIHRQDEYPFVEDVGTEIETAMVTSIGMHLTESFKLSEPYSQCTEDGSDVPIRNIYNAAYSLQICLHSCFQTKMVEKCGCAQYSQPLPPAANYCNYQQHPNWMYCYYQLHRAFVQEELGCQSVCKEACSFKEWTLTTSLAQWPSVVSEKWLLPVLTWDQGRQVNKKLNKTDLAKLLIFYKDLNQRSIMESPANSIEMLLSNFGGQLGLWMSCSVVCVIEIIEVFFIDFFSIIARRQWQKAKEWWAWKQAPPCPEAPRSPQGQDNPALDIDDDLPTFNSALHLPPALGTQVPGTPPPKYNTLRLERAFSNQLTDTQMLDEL
The test is described as follows: Short circuit current (ISC) measurements in Human Bronchial Epithelial cells, inhibition of amiloride-sensitive ISC. The format is cell-based. The note with it: inhibition of the amiloride-sensitive ISC; Human Bronchial Epithelial cells (HBECs) at air-liquid interface; compound added to apical chamber; read-out: IC50. A digest of the protocol:
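Well-differentiated air-liquid interface HBECs (days 7–21) in Ussing chambers, Ringer pH 7.4, 37° C, voltage clamped at 0 mV. Cumulative 3-fold apical compound additions, then 10 μM amiloride to define total amiloride-sensitive ISC. IC50 from mean % inhibition, typically duplicate inserts.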
A word on the IC50: it is the concentration at which inhibition is half-maximal. In the case of `Nc1nc(N)c(C(=O)/N=C2\NCC3(CCN(C(=O)CCc4nc(-c5ccc(Cl)cc5)no4)CC3)N2)nc1Cl` [Example 146, 3,5-Diamino-6-chloro-pyrazine-2-carboxylic acid [8-{3-[3-(4-chlorophenyl)-[1,2,4]oxadiazol-5-yl]-propionyl}-1,3,8-triaza-spiro[4.5]dec-(2E)-ylidene-amide trifluoroacetate], the IC50 was 6 nM.
Regarding `Nc1nc(N)c(C(=O)/N=C2/NC[C@@H](CCCc3ccc(OC[C@@H](O)CO)cc3)N2)nc1Cl` [Example 19, 3,5-Diamino-6-chloro-pyrazine-2-carboxylic acid [(R)-4-{3-[4-((S)-2,3-dihydroxy-propoxy)-phenyl]-propyl}-imidazolidin-(2Z)-ylidene]-amide], the IC50 worked out at 18 nM.
In the case of `Nc1nc(N)c(C(=O)/N=C2\NCC3(CCN(S(=O)(=O)Cc4ccccc4)CC3)N2)nc1Cl` [Example 232, 3,5-Diamino-6-chloro-pyrazine-2-carboxylic acid [8-phenylmethanesulfonyl-1,3,8-triaza-spiro[4.5]dec-(2E)-ylidene]-amide] it was 54 nM; in that of `Nc1nc(N)c(C(=O)/N=C2\NC[C@H](CCCNC(=O)NCc3ccccc3)N2)nc1Cl` [Example 32, 3,5-Diamino-6-chloro-pyrazine-2-carboxylic acid [(S)-4-[3-(3-benzyl-ureido)-propyl]-imidazolidin-(2E)-ylidene]-amide], 18 nM; in that of `CC(C)NC(=O)Nc1cccc(C(=O)N2CCC3(CC2)CN/C(=N\C(=O)c2nc(Cl)c(N)nc2N)N3)c1` [Example 43, 3,5-Diamino-6-chloro-pyrazine-2-carboxylic acid [8-[3-(3-isopropyl-ureido)-benzoyl]-1,3,8-triaza-spiro[4.5]dec-(2E)-ylidene]-amide], 13 nM.
In the case of `COc1cc(OC)nc(COc2ccc(C(=O)N3CCC4(CC3)CN/C(=N\C(=O)c3nc(Cl)c(N)nc3N)N4)cc2)n1` [Example 61, 3,5-Diamino-6-chloro-pyrazine-2-carboxylic acid [8-[4-(4,6-dimethoxy-pyrimidin-2-ylmethoxy)-benzoyl]-1,3,8-triaza-spiro[4.5]dec-(2E)-ylidene]-amide] it was 346 nM.
